# Values joined by “and” are separate entries in the source; they are usually repeats but may differ in a detail not shown here. Equal entries are not always repeated. Active and inactive are the calls of the source.
# How the values were obtained:
# Large T antigen = Large T antigen (Simian virus 40, UniProt P03070); type: functional, Betapolyomavirus macacae;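 also: Confirmatory-stage PubChem screen for compounds that inhibit SV40 T antigen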
# Cytochrome P450 3A4 [1] = target: T1, Cytochrome P450 3A4 (Homo sapiens, UniProt P08684); settings: Potency
# T1 sequence (P08684 whole entry): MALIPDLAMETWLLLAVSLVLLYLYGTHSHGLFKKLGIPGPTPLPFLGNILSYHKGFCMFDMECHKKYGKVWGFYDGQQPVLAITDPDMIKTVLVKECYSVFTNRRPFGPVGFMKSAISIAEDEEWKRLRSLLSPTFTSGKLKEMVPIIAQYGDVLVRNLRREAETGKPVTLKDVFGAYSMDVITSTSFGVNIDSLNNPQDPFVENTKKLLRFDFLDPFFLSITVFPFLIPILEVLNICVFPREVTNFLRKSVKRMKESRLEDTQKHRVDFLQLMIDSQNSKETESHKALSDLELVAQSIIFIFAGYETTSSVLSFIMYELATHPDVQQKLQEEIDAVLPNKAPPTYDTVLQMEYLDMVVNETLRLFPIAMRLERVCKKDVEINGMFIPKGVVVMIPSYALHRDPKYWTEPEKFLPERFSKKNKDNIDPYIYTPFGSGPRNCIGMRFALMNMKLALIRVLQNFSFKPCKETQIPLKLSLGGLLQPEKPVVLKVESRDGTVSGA
# [2] = target: T2, Ubiquitin-conjugating enzyme E2 N (Homo sapiens, UniProt P61088); type: functional;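 also: Dose-response confirmation in a TR-FRET assay detecting UBC13-driven polyubiquitin chain formation, inhibition measured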
# T2 sequence (P61088 whole entry): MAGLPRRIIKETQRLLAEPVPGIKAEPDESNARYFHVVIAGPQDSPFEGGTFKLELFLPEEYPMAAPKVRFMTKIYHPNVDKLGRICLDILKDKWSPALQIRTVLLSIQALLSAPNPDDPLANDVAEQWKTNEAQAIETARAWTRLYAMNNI
# [3] = HEK293 cell cytotoxicity, dose response, cytotoxicity control, plate reader, cherry-picked samples (AID 743446); type: functional, cell-based
# [4] = LGR2 antagonists, dose response, cell-based, HEK293, CRE-luciferase reporter, cherry pick, set 2 (AID 743343); type: functional;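 also: transfected cells were stimulated with diluted bursicon conditioned medium after compound addition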
# [5] = MC4R antagonists, dose response, counter-screen for LGR2 antagonist project, cell-based, plate reader, cherry pick (AID 743444); type: functional;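 also: transfected HEK 293 cells stimulated with alpha-MSH peptide; potency of inhibitors of the alpha-MSH evoked signal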
# [6] = target: T3, Short transient receptor potential channel 4 (Mus musculus, UniProt Q9QUQ5); experiment: mouse TRPC4 channel inhibitors, dose response, cell-based, HEK293 TRPC4/mu-opioid, Fluo-4 calcium (AID 434942); type: functional;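 also: potency of inhibitors blocking the TRPC4 calcium response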
# T3 sequence (Q9QUQ5 whole entry): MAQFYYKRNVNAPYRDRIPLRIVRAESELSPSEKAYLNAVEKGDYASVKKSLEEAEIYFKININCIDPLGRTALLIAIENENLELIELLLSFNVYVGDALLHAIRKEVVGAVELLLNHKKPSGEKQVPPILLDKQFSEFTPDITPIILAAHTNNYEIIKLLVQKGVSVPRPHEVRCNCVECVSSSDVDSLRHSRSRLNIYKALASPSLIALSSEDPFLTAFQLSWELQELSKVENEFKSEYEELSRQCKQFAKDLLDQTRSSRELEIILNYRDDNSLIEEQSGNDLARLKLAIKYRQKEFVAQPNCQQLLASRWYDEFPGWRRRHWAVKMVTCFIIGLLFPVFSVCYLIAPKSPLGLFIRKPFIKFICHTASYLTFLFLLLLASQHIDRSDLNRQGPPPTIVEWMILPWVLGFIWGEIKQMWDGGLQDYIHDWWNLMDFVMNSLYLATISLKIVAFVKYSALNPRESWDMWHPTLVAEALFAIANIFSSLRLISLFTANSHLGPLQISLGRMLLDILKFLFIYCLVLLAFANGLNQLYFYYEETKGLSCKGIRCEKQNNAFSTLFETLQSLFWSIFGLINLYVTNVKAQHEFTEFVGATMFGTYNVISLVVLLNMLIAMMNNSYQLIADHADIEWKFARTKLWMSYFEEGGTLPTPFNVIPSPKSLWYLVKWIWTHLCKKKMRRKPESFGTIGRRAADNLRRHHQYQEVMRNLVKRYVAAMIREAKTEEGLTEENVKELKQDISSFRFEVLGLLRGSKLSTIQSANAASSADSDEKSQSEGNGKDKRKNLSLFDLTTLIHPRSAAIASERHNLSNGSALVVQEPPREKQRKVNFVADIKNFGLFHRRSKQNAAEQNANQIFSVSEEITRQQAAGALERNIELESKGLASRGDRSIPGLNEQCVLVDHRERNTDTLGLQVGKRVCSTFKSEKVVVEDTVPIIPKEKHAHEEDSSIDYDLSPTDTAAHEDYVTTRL
# [7] = P. falciparum Dd2 growth inhibitors, dose response, SYBR Green, cherry-picked samples (AID 1159567); type: functional, cell-based
# [8] = target: DNA dC->dU-editing enzyme APOBEC-3A (Homo sapiens, UniProt P31941); experiment: Dose Response confirmation of small molecule APOBEC3A DNA Deaminase Inhibitors via a fluorescence-based single-stranded DNA deaminase assay. [Related pubchem assays (depositor defined):AID493011, AID493024]; type: functional
# Chain of DNA dC->dU-editing enzyme APOBEC-3A (P31941 whole entry): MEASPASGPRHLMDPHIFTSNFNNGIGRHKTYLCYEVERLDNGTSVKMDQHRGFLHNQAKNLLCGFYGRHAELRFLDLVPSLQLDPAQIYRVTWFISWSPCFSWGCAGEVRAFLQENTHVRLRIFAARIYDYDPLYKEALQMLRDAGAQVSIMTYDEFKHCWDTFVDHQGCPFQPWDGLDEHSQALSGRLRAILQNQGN
# [9] = target: T4, Heat shock factor protein 1 (Mus musculus, UniProt P38532); experiment: inhibition of MG132-induced HSE-luciferase signal, confirmation, cell-based, NIH3T3, luminescence, dose retest (AID 2382); type: functional;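 also: NIH3T3 fibroblasts with HSF1-driven luciferase reporter stressed by proteasome inhibitor MG132; luminescence from HSF1-driven luciferase expression after 8 hours of MG132 stress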
# T4 sequence (P38532 whole entry): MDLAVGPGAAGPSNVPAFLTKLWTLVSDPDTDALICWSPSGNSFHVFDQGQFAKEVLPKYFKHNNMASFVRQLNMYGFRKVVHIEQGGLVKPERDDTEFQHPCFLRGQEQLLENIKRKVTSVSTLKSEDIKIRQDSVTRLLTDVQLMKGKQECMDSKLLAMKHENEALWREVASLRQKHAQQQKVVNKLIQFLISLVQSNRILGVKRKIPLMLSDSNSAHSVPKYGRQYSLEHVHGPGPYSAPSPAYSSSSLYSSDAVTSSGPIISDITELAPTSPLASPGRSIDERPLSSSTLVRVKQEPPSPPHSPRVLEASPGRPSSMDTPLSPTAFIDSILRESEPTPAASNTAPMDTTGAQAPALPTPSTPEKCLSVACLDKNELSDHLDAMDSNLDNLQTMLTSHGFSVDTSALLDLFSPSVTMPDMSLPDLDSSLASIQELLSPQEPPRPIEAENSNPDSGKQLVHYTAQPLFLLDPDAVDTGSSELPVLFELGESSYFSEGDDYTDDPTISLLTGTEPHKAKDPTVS
# [10] = target: DNA dC->dU-editing enzyme APOBEC-3G (Homo sapiens, UniProt Q9HC16); type: functional;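 also: Dose-response counterscreen measuring inhibition of APOBEC3G DNA deaminase activity, run while confirming APOBEC3A inhibitors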
# Chain of DNA dC->dU-editing enzyme APOBEC-3G (Q9HC16 whole entry, the tested form may be a part): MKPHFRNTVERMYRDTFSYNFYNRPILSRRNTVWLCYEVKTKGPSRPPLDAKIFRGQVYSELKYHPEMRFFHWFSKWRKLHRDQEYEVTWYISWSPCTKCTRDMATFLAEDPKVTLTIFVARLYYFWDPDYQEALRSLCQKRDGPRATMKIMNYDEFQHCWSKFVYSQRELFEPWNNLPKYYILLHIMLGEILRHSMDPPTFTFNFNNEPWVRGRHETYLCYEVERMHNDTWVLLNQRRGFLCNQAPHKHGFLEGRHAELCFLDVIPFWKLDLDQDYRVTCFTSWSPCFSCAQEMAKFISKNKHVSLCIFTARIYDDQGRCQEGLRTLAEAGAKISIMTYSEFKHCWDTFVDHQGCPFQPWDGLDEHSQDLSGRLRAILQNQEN
# [11] = ZM109 Env clade C HIV-1 fusion inhibitors, dose response, HeLa effector, CEM target cells, luciferase, cherry-pick (AID 652058); type: functional, cell-based
# [12] = HepG2 cell cytotoxicity, dose response, cytotoxicity control, plate reader, cherry-pick, antagonist series (AID 743416); type: functional, cell-based
# [13] = A549 cell cytotoxicity, dose response, cytotoxicity control, plate reader, cherry-pick, antagonist series (AID 743412); type: functional, cell-based
# cells = type: functional
# [14] = target: T5, Carboxy-terminal domain RNA polymerase II polypeptide A small phosphatase 1 (Homo sapiens, UniProt Q9GZU7); experiment: inhibitors of CTDSP1, concentration-response testing, biochemical assay, absorbance-based, actives from ultra-high-throughput screening (AID 540297); type: functional
# T5 sequence (Q9GZU7 whole entry): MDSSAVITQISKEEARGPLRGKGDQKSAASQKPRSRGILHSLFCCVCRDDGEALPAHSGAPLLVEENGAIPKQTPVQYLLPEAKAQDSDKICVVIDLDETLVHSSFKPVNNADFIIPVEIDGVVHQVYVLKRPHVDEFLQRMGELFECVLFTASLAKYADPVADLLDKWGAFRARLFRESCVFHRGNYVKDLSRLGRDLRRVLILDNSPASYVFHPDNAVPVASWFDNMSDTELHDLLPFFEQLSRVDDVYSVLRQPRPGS
# [15] = microbe, parasite or virus in culture; type: functional; settings: Mycobacterium tuberculosis
# [16] = target: FAD-linked sulfhydryl oxidase ALR (Homo sapiens, UniProt P55789); experiment: inhibitors of human ALR sulfhydryl oxidase, dose response, biochemical, H2O2 detection, luminescence, cherry-pick (AID 493248)
# Chain of FAD-linked sulfhydryl oxidase ALR (P55789 whole entry): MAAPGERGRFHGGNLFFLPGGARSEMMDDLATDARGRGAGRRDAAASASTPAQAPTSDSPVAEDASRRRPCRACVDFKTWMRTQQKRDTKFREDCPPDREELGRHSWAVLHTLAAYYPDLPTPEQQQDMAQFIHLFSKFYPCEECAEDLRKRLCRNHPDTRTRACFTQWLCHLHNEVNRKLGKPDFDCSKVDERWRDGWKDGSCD
# [17] = target: T4, Heat shock factor protein 1; experiment: HSF1 potentiators in luciferase reporter cells, confirmation, cell-based, NIH3T3, luminescence, dose retest (AID 435004); type: functional;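 also: stress induced by proteasome inhibitor MG132 added 30 min after compound; luciferase reporter driven by HSF1 response element in NIH3T3 cells; actives raise luminescence as potentiators of the MG132 stress response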
# Cytochrome P450 3A4 [18] = target: T1, Cytochrome P450 3A4
# Chain of Large T antigen (P03070 whole entry): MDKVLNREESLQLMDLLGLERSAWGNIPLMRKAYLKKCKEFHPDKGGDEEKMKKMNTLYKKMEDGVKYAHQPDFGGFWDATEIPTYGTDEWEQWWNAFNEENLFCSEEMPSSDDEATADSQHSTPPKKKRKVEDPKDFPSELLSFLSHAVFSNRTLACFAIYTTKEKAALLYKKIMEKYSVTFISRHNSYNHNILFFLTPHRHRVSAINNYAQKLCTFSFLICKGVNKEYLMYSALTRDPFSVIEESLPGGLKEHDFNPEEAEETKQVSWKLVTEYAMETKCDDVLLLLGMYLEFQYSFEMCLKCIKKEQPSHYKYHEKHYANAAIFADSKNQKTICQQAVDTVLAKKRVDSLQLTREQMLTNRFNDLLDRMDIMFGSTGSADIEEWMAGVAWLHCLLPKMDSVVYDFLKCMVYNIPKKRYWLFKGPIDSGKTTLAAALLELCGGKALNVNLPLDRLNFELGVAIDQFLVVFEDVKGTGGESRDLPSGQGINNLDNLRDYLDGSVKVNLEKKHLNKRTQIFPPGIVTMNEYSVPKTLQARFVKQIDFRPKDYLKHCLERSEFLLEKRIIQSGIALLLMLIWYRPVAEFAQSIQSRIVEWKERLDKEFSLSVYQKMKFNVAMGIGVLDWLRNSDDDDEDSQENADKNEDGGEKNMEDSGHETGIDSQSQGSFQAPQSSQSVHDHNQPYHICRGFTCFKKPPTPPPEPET
structure (smiles),measurement,setting,value
CN(C)c1ccc(NC(=O)c2cccc(N3C(=O)CCC3=O)c2)cc1,IC50,Large T antigen,9.21 µM (active)
CCC1=C2CC[C@H]3C(=O)N(CC)C(=O)[C@H]3[C@H]2[C@@]2(C)/C(=N/CC(=O)OC)OC(=O)N2C1=O,AC50,Cytochrome P450 3A4 [1],15.8 µM (inconclusive)
CCCCCCSc1cc(-c2nc3cc(C)ccn3c2NC2CCCCC2)ccc1OC,IC50,[2],> 20 µM (inactive)
Cc1c(C)c2ccc(OCC(=O)Nc3nccs3)cc2oc1=O,AC50,[3],> 52 µM (inactive)
same,AC50,[4],4.84 µM (active)
same,AC50,[5],4.38 µM (active)
CCOC(=O)c1cc(C#N)c(N2CCCCC2)nc1-c1ccccc1,EC50,[6],3.76 µM (active)
CO[C@@H]1CN(C)C(=O)c2ccc(NC(=O)Nc3cccc(F)c3)cc2OC[C@H](C)NC[C@H]1C,AC50,[7],7.62 µM (active)
CCCC[N+]12CCC(CC1)C(C(O)(c1ccccc1)c1ccccc1)C2 (stereo not given),IC50,[8],2.74 µM (active)
same,EC50,[9],> 195 µM (not active)
same,IC50,[10],2.79 µM (active)
COc1ccc(-c2ccccc2[C@H]2[C@@H](CO)N(C(=O)C3CCOCC3)[C@H]2C#N)cc1,AC50,[7],> 39 µM (inactive)
CC(C)NC(=O)N(C)C[C@@H]1Oc2ccc(NC(=O)C3CC3)cc2CC(=O)N([C@@H](C)CO)C[C@@H]1C,AC50,[11],64.5 µM (active)
CC(=O)Nc1ccc(-c2ccccc2)s1,IC50,[8],5.3 µM (active)
same,IC50,[10],5.05 µM (active)
COc1ccc(S(=O)(=O)Nc2ccc3c(c2)C(=O)N([C@@H](C)CO)C[C@H](C)[C@@H](CN(C)C(=O)Nc2cccc4ccccc24)OCCCC[C@H](C)O3)cc1,AC50,[3],> 52 µM (inactive)
same,AC50,[12],> 52 µM (inactive)
same,AC50,[13],22.8 µM (active)
same,AC50,[5],8.72 µM (active)
N#CC1=C(S)N(c2ccccc2)C(c2ccc(-c3ccc(Cl)c(Cl)c3)o2)NC1=O (stereo not given),IC50,Large T antigen,62.7 µM (active)
Cc1cc(C)cc(NC(=O)CCc2ccc(C)o2)c1,IC50,cells,36.7 µM (active)
O=C(Nc1nnc(-c2cc(Cl)ccc2Cl)o1)C1=COCCO1,IC50,cells,11.6 µM (active)
N=C1/C(=C/c2ccco2)C(=O)N=C2SC(CC(=O)N3CCCC3)=NN12,IC50,[8],18.5 µM (active)
same,IC50,[10],37.6 µM (active)
same,IC50,[14],7.01 µM (active)
CNC(=O)COc1ccc2oc3c(c2c1)CCCC3,EC50,[6],1.33 µM (active)
CC1Cc2ccccc2N1C(=O)COC(=O)c1ccc(Cl)nc1 (stereo not given),IC50,cells,39.8 µM (active)
O=C(Nc1ccc(Oc2ccccc2)nc1)C1CCN(Cc2ccccc2)CC1,EC50,[6],2.37 µM (active)
COc1cccc2c1cc([N+](=O)[O-])c1c(C(=O)O)cc3c(c12)OCO3 [ARISTOLOCHIC ACID],AC50,Cytochrome P450 3A4 [1],10 µM (inconclusive) and 63.1 nM (inconclusive)
CC1=NN(c2ccccc2)C(=O)C1C(=O)c1ccccc1 (stereo not given),CC50,[15],> 40 µM (active)
same,IC50,cells,42.1 µM (active)
C[C@@]12CCC(O)C[C@H]1CCC1C2CC[C@]2(C)C(=O)CCC12 (stereo not given in full),AC50,Cytochrome P450 3A4 [1],15.8 µM (inconclusive)
NS(=O)(=O)c1ccc(CCNCc2ccccc2OCc2ccc(F)cc2)cc1,EC50,[6],3.35 µM (active)
CC(C)(C)[S@+]([O-])N1Cc2cc(C(=O)NC3CCC3)nc(-c3cccc(Br)c3)c2[C@@H]1CCO,AC50,[7],7.47 µM (active)
Nc1ccc(C(=O)Nc2cccc(N)c2)cc1,AC50,[16],1.96 µM (active)
COc1ccc(Nc2c3c(nc4ccccc24)CCCC3)cc1OC,AC50,[16],0.511 µM (active)
COC(=O)c1ccc(CSc2nc3ccccc3c(=O)n2CC(C)C)o1,EC50,[17],> 260 µM (inactive)
same,EC50,[6],3.35 µM (active)
O=C1OC(C2=CCCCC2)=NC12CC2,AC50,Cytochrome P450 3A4 [1],5.01 µM (inconclusive)
COc1ccccc1N1CCN(S(=O)(=O)c2ccccc2)CC1,AC50,[16],7.31 µM (active)
Cc1cc(Cl)ccc1OC(C)C(=O)Nc1ccc([N+](=O)[O-])cn1 (stereo not given),IC50,cells,38 µM (active)
COC(=O)CNC(=O)C1(CC(C)C)C=CCN1C(=O)c1ccccc1 (stereo not given),AC50,Cytochrome P450 3A4 [1],20 µM (inconclusive)
COc1cc(/C=C/c2cc[n+](C)cc2)ccc1OCC(=O)Nc1ccccc1,IC50,[8],2.93 µM (active)
same,IC50,[10],2.02 µM (active)
same,IC50,[14],5.84 µM (active)
O=C(Nc1nc2ccccc2s1)c1ccc2c(c1)OCO2,AC50,[3],31.5 µM (active)
same,AC50,[12],> 52 µM (inactive)
same,AC50,[4],3.49 µM (active)
same,AC50,[13],> 52 µM (inactive)
same,AC50,[5],4.59 µM (active)
"COc1cc(OC)c2c(=O)c(-c3ccccc3)c(C)oc2c1OC [2-METHYL-5,7,8-TRIMETHOXYISOFLAVONE]",AC50,Cytochrome P450 3A4 [1],20 µM (inconclusive)
Cc1ccc2[nH]c(O)c(/N=N/C(=N)S)c2c1,IC50,[2],> 20 µM (inactive)
C/C(CC(=O)Nc1ccc(N(C)C)cc1)=N\NC(=O)c1cnccn1,IC50,Large T antigen,17.5 µM (active)
CCCCNc1nc(-c2ccccc2)c(C(=O)OCC)cc1C#N,EC50,[6],1.19 µM (active)
same,AC50,Cytochrome P450 3A4 [18],28.2 µM (inconclusive)

# — ChEMBL document CHEMBL1201862, “PubChem BioAssay data set” (2004)
